Laboratory results taken from PubChem BioAssay (NCI).
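Test compounds were applied to cells in 96-well plates for 48 hours at 5 doses. Definition used: TGI = concentration required for complete inhibition of growth.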

What was measured:
Assay in all cases: inhibition of tumour cell growth, NCI panel, 48 h
NCI-H522 lung = tested on: NCI-H522 lung
UACC-257 melanoma = tested on: UACC-257 melanoma
MALME-3M melanoma = tested on: MALME-3M melanoma
M14 melanoma = tested on: M14 melanoma
HOP-18 NSCLC = tested on: HOP-18 NSCLC
A549 NSCLC = tested on: A549 NSCLC
NCI-H460 lung = tested on: NCI-H460 lung
HL-60(TB) leukemia = tested on: HL-60(TB) leukemia
HCC-2998 colon = tested on: HCC-2998 colon
HOP-62 NSCLC = tested on: HOP-62 NSCLC
IGROV1 ovarian = tested on: IGROV1 ovarian
MCF7 breast = tested on: MCF7 breast
A498 renal = tested on: A498 renal
HS 578T breast = tested on: HS 578T breast
COLO 205 colon = tested on: COLO 205 colon
ACHN renal = tested on: ACHN renal
SNB-75 CNS = tested on: SNB-75 CNS
DMS 114 small cell lung = tested on: DMS 114 small cell lung
CAKI-1 renal = tested on: CAKI-1 renal
T-47D breast = tested on: T-47D breast
DMS 273 small cell lung = tested on: DMS 273 small cell lung
MOLT-4 leukemia = tested on: MOLT-4 leukemia
UO-31 renal = tested on: UO-31 renal
DLD-1 colon = tested on: DLD-1 colon
KM20L2 colon = tested on: KM20L2 colon
SK-MEL-5 melanoma = tested on: SK-MEL-5 melanoma
KM12 colon = tested on: KM12 colon
MDA-MB-231 breast = tested on: MDA-MB-231 breast
K-562 leukemia = tested on: K-562 leukemia
SF-295 CNS = tested on: SF-295 CNS
RXF 393 renal = tested on: RXF 393 renal
TK-10 renal = tested on: TK-10 renal
EKVX NSCLC = tested on: EKVX NSCLC
LXFL 529 NSCLC = tested on: LXFL 529 NSCLC
SF-268 CNS = tested on: SF-268 CNS
PC-3 prostate = tested on: PC-3 prostate
HCT-116 colon = tested on: HCT-116 colon
SNB-19 CNS = tested on: SNB-19 CNS
M19-MEL melanoma = tested on: M19-MEL melanoma
NCI-H226 lung = tested on: NCI-H226 lung
BT-549 breast = tested on: BT-549 breast
NCI-H23 lung = tested on: NCI-H23 lung
SK-MEL-28 melanoma = tested on: SK-MEL-28 melanoma
XF 498 CNS = tested on: XF 498 CNS
MDA-MB-435 = tested on: MDA-MB-435
U251 CNS = tested on: U251 CNS
OVCAR-5 ovarian = tested on: OVCAR-5 ovarian
SK-MEL-2 melanoma = tested on: SK-MEL-2 melanoma
OVCAR-8 ovarian = tested on: OVCAR-8 ovarian
SR leukemia = tested on: SR leukemia
OVCAR-4 ovarian = tested on: OVCAR-4 ovarian
SF-539 CNS = tested on: SF-539 CNS
MDA-N = tested on: MDA-N
SW-620 colon = tested on: SW-620 colon
LOX IMVI melanoma = tested on: LOX IMVI melanoma
UACC-62 melanoma = tested on: UACC-62 melanoma
SN12C renal = tested on: SN12C renal
DU-145 prostate = tested on: DU-145 prostate
HOP-92 NSCLC = tested on: HOP-92 NSCLC
HCT-15 colon = tested on: HCT-15 colon
OVCAR-3 ovarian = tested on: OVCAR-3 ovarian
NCI/ADR-RES ovarian = tested on: NCI/ADR-RES ovarian
HT29 colon = tested on: HT29 colon
SK-OV-3 ovarian = tested on: SK-OV-3 ovarian
SNB-78 CNS = tested on: SNB-78 CNS
CCRF-CEM leukemia = tested on: CCRF-CEM leukemia
786-0 renal = tested on: 786-0 renal
RPMI-8226 leukemia = tested on: RPMI-8226 leukemia

Structure (SMILES): O=C1C=CC(=O)c2c(O)ccc(O)c21
- TGI (NCI-H522 lung): 1.16 µM
- TGI (UACC-257 melanoma): 2450 nM
- TGI (MALME-3M melanoma): 2390 nM
- TGI (M14 melanoma): 1.32 µM
- TGI (HOP-18 NSCLC): 2.17 µM
- TGI (A549 NSCLC): 33.1 µM
- TGI (NCI-H460 lung): 9.79 µM
- TGI (HL-60(TB) leukemia): 831 nM
- TGI (HCC-2998 colon): 10.5 µM
- TGI (HOP-62 NSCLC): 19.3 µM
- TGI (IGROV1 ovarian): 15.5 µM
- TGI (MCF7 breast): 6.59 µM
- TGI (A498 renal): 7.78 µM
- TGI (HS 578T breast): 6.57 µM
- TGI (COLO 205 colon): 1.66 µM
- TGI (ACHN renal): 2.67 µM
- TGI (SNB-75 CNS): 6.98 µM
- TGI (DMS 114 small cell lung): 5.27 µM
- TGI (CAKI-1 renal): 2820 nM
- TGI (T-47D breast): 4.61 µM
- TGI (DMS 273 small cell lung): 7.55 µM
- TGI (MOLT-4 leukemia): 4.45 µM
- TGI (UO-31 renal): 4.69 µM
- TGI (DLD-1 colon): 891 nM
- TGI (KM20L2 colon): 4.97 µM
- TGI (SK-MEL-5 melanoma): 6.08 µM
- TGI (KM12 colon): 13 µM
- TGI (MDA-MB-231 breast): 6.64 µM
- TGI (K-562 leukemia): > 25 µM
- TGI (SF-295 CNS): 16.1 µM
- TGI (RXF 393 renal): 2020 nM
- TGI (TK-10 renal): 2.75 µM
- TGI (EKVX NSCLC): 7.4 µM
- TGI (LXFL 529 NSCLC): 1640 nM
- TGI (SF-268 CNS): 8.39 µM
- TGI (PC-3 prostate): 29.5 µM
- TGI (HCT-116 colon): 2390 nM
- TGI (SNB-19 CNS): 16.6 µM
- TGI (M19-MEL melanoma): 1490 nM
- TGI (NCI-H226 lung): 18.5 µM
- TGI (BT-549 breast): 4.8 µM
- TGI (NCI-H23 lung): 7.39 µM
- TGI (SK-MEL-28 melanoma): 2760 nM
- TGI (XF 498 CNS): 3.07 µM
- TGI (MDA-MB-435): 13.1 µM
- TGI (U251 CNS): 14.8 µM
- TGI (OVCAR-5 ovarian): 13.1 µM
- TGI (SK-MEL-2 melanoma): 17.4 µM
- TGI (OVCAR-8 ovarian): 2050 nM
- TGI (SR leukemia): 1750 nM
- TGI (OVCAR-4 ovarian): 4.97 µM
- TGI (SF-539 CNS): 5.84 µM
- TGI (MDA-N): 8.18 µM
- TGI (SW-620 colon): 1100 nM
- TGI (LOX IMVI melanoma): 3.8 µM
- TGI (UACC-62 melanoma): 3.95 µM
- TGI (SN12C renal): 3.08 µM
- TGI (DU-145 prostate): 28 µM
- TGI (HOP-92 NSCLC): 3.21 µM
- TGI (HCT-15 colon): 1650 nM
- TGI (OVCAR-3 ovarian): 5.87 µM
- TGI (NCI/ADR-RES ovarian): 3.72 µM
- TGI (HT29 colon): 5.68 µM
- TGI (SK-OV-3 ovarian): 27.5 µM
- TGI (SNB-78 CNS): 6.37 µM
- TGI (CCRF-CEM leukemia): 966 nM
- TGI (786-0 renal): 2550 nM

Structure (SMILES): CNc1ccc(/C=C2\C=Cc3ccccc32)cc1
- TGI (NCI-H522 lung): 25.3 µM
- TGI (UACC-257 melanoma): > 100000 nM
- TGI (M14 melanoma): 36.1 µM
- TGI (HOP-18 NSCLC): 55.2 µM
- TGI (A549 NSCLC): > 100 µM
- TGI (NCI-H460 lung): 37.9 µM
- TGI (HL-60(TB) leukemia): > 100000 nM
- TGI (HCC-2998 colon): 31.4 µM
- TGI (HOP-62 NSCLC): 53.7 µM
- TGI (IGROV1 ovarian): > 100 µM
- TGI (A498 renal): 96.8 µM
- TGI (COLO 205 colon): 33.3 µM
- TGI (ACHN renal): 54.5 µM
- TGI (DMS 114 small cell lung): 44.9 µM
- TGI (CAKI-1 renal): > 100000 nM
- TGI (DMS 273 small cell lung): 71.3 µM
- TGI (MOLT-4 leukemia): > 100 µM
- TGI (UO-31 renal): 30.5 µM
- TGI (DLD-1 colon): > 100000 nM
- TGI (KM20L2 colon): 35.8 µM
- TGI (SK-MEL-5 melanoma): 54.3 µM
- TGI (KM12 colon): 26.4 µM
- TGI (K-562 leukemia): > 100 µM
- TGI (SF-295 CNS): 99 µM
- TGI (RXF 393 renal): > 100000 nM
- TGI (TK-10 renal): 54.6 µM
- TGI (EKVX NSCLC): 91.1 µM
- TGI (LXFL 529 NSCLC): > 100000 nM
- TGI (SF-268 CNS): > 100 µM
- TGI (HCT-116 colon): > 100000 nM
- TGI (SNB-19 CNS): > 100 µM
- TGI (M19-MEL melanoma): > 100000 nM
- TGI (NCI-H226 lung): 57.3 µM
- TGI (NCI-H23 lung): 57.7 µM
- TGI (SK-MEL-28 melanoma): > 100000 nM
- TGI (XF 498 CNS): > 100 µM
- TGI (U251 CNS): > 100 µM
- TGI (OVCAR-5 ovarian): 45 µM
- TGI (SK-MEL-2 melanoma): 42 µM
- TGI (OVCAR-8 ovarian): > 100000 nM
- TGI (RPMI-8226 leukemia): > 100 µM
- TGI (SR leukemia): > 100000 nM
- TGI (OVCAR-4 ovarian): > 100 µM
- TGI (SF-539 CNS): > 100 µM
- TGI (SW-620 colon): > 100000 nM
- TGI (LOX IMVI melanoma): 24.5 µM
- TGI (UACC-62 melanoma): 71.9 µM
- TGI (SN12C renal): > 100 µM
- TGI (HOP-92 NSCLC): 50.9 µM
- TGI (HCT-15 colon): > 100000 nM
- TGI (OVCAR-3 ovarian): 51.9 µM
- TGI (HT29 colon): 38.4 µM
- TGI (SK-OV-3 ovarian): > 100 µM
- TGI (SNB-78 CNS): > 100 µM
- TGI (CCRF-CEM leukemia): > 100000 nM
- TGI (786-0 renal): > 100000 nM
